Experimental data from US20170071944A1, “MODULATORS OF TOLL-LIKE RECEPTORS FOR THE TREATMENT OF HIV” (Gilead Sciences, Inc., priority 2015, published 2017).

System: PBMC cultures from HIV-1 infected subjects on cART
Assay: Induced cytokines and chemokines in PBMC cultures from HIV-1 infected subjects on cART (multiplexed Luminex)
Type: cell-based, human
Experimental: To further characterize the immune modulatory effect of TLR8 agonists in cells from HIV-infected subjects, the production of secreted cytokines and chemokines was measured in PBMCs from 4 HIV-infected subjects on suppressive cART (anonymized participant IDs 180-183). PBMCs were purified, as described in Example 121, and immediately added to tissue culture plates pre-equilibrated at 37° C. with media containing DMSO (vehicle control) or with the TLR8 modulating compound Example 15 at concentrations ranging from 1.0 nM to 10.0 μM. On day 2 after treatment, cell-free culture supernatants were collected and frozen at −80 C for subsequent analysis. Frozen supernatants were thawed at room temperature, and the indicated cytokines and chemokines were quantified with a custom multiplexed xMAP Luminex® assay following the manufacturer's instructions (Thermo Fisher Scientific Inc., Grand Island, N.Y., custom-designed kit).
Data are expressed as geometric mean cytokine values (pg/ml) obtained from 4 subjects' PBMCs. Geometric mean fold-activation from three independent incubation samples for each condition. Fold (fold-activation) is calculated as a ratio of the concentration of cytokine detected in cell culture supernatants from agonist treated samples relative to DMSO treated samples

[1] = Ex 15 3000 nM, day 2, geometric mean, 4 subjects
[2] = Ex 15 10000 nM, day 2, geometric mean, 4 subjects

SMILES: CCCC[C@H](CO)Nc1nc(N)nc2cccnc12 [Example 15]
- IL-18 Fold vs DMSO [1]: 18 fold
- IL-23 Fold vs DMSO [1]: 19 fold
- IP-10 pg/ml [1]: 711 pg/mL
- IP-10 Fold vs DMSO [1]: 3 fold
- MCP-1 pg/ml [1]: 1646 pg/mL
- MCP-1 Fold vs DMSO [1]: 25 fold
- MIP-1α [1]: 21047 pg/mL
- MIP-1α Fold vs DMSO [1]: 421 fold
- MIP-1β [1]: 293183 pg/mL
- MIP-1β Fold vs DMSO [1]: 240 fold
- MIP-3α [1]: 2141 pg/mL
- MIP-3α Fold vs DMSO [1]: 82 fold
- MMP-1 pg/ml [1]: 311 pg/mL
- MMP-1 Fold vs DMSO [1]: 3 fold
- TNF-α [1]: 64062 pg/mL
- TNF-α Fold vs DMSO [1]: 3051 fold
- GRO-α [2]: 433 pg/mL
- GRO-α Fold vs DMSO [2]: 19 fold
- Granzyme B [2]: 644 pg/mL
- Granzyme B Fold vs DMSO [2]: 3 fold
- I-TAC [2]: 69 pg/mL
- I-TAC Fold vs DMSO [2]: 1 fold
- IFN-α [2]: 4 pg/mL
- IFN-α Fold vs DMSO [2]: 2 fold
- IFN-γ [2]: 1478 pg/mL
- IFN-γ Fold vs DMSO [2]: 59 fold
- IL-6 pg/ml [2]: 18836 pg/mL
- IL-8 pg/ml [2]: 1118 pg/mL
- IL-10 pg/ml [2]: 5167 pg/mL
- IL-18 pg/ml [2]: 218 pg/mL
- IL-23 pg/ml [2]: 965 pg/mL
- IL-1RA [2]: 90289 pg/mL
- IL-1RA Fold vs DMSO [2]: 25 fold
- IL-1β [2]: 6611 pg/mL
- IL-1β Fold vs DMSO [2]: 2204 fold
- IL-6 Fold vs DMSO [2]: 241 fold
- IL-8 Fold vs DMSO [2]: 4 fold
- IL-10 Fold vs DMSO [2]: 304 fold
- IL-12p70 pg/ml [2]: 113 pg/mL
- IL-12p70 Fold vs DMSO [2]: 38 fold
- IL-18 Fold vs DMSO [2]: 13 fold
- IL-23 Fold vs DMSO [2]: 16 fold
- IP-10 pg/ml [2]: 587 pg/mL
- IP-10 Fold vs DMSO [2]: 2 fold
- MCP-1 pg/ml [2]: 1796 pg/mL
- MCP-1 Fold vs DMSO [2]: 27 fold
- MIP-1α [2]: 24365 pg/mL
- MIP-1α Fold vs DMSO [2]: 487 fold
- MIP-1β [2]: 239694 pg/mL
- MIP-1β Fold vs DMSO [2]: 196 fold
- MIP-3α [2]: 1680 pg/mL
- MIP-3α Fold vs DMSO [2]: 65 fold
- MMP-1 pg/ml [2]: 740 pg/mL
- MMP-1 Fold vs DMSO [2]: 8 fold
- TNF-α [2]: 23017 pg/mL
- TNF-α Fold vs DMSO [2]: 1096 fold
- Peak fold-activation relative to DMSO, IL-12p70 (Example 15, 1.0 nM to 10.0 μM): 518 fold
- Peak fold-activation relative to DMSO, IL-18 (Example 15, 1.0 nM to 10.0 μM): 18 fold
- Peak fold-activation relative to DMSO, TNF-α (Example 15, 1.0 nM to 10.0 μM): 3051 fold
- Induction of IFN-ω, IL-2, IL-4, IL-5, IL-7, IL-15, IL-17A, IL-21, IL-27, or IL-29 compared to DMSO control (Example 15, 1.0 nM to 10.0 μM, did not induce at levels >2-fold): ≤ 2 fold
